Tests used:
[1] = tested on: ZR-75-1; assay: Cell viability assay, adherent cell line, 5 day Alamar Blue (Example 8): ZR-75-1; format: cell-based; settings: Homo sapiens, 120 h, ZR-75-1, Breast Cancer Cell Viability
Description: Cell viability assays were performed on certain compounds of the disclosure, according to the following procedure.
Cell line specific media conditions used:
The procedure for adherent cell line compound screening was as follows:
• Cells were seeded in 96-well cell culture treated tissue culture plates: ZR-75-1, NIHOVCAR3, T47D, and LOVO cells 4000 cells/well; and HPAFII 3000 cell/well
Day 3: Compound Dilution and Dosing
• 5-fold serial dilution (8 point) of each compound in DMSO 0-25 mM in compound storage plates was prepared (stored at −80° C. if not to be used immediately). • Cells were rinsed with 1% FBS Media (appropriate to cell line as described above) and replaced with 87.5 μL media prior to dosing. HPAFII was screened in normal 10% FBS Media. • DMSO compound dilution series was diluted in 1% FBS media (appropriate to cell line as described above)—2 μL in 248 μL to give an 8× final concentration. • Cells were dosed 12.5 μL/well in triplicate to give final dose curved on cells 0-25 μM. • Media blank 100 μL/well×8 was set up. • All plates were incubated at 37° C.
Day 8: 5 Day Viability Assay
• Alamar Blue viability reagent was added (10 μL per well) and incubated for 3 hours at 37° C. prior to fluorescence detection (Ex560 nm/Em590 nm) on a Varioskan Lux multimode plate reader.
Results from cell viability assays are summarized in Table 23, wherein A represents IC50≤1 μM; B represents 1 μM<IC50≤8 μM; and C represents IC50>8 μM. Blank cells indicate that the compound was not tested in a particular assay.

[2] = target: T1, Human eIF4E (aa 28-217) (Homo sapiens, UniProt P06730); assay: 4G-eIF4E protein-based assay (TR-FRET, biotin labeled 4G2 peptide); format: binding
T1 construct: Human eIF4E (aa 28-217) with a C-terminal His-tag; made in house
T1 sequence (P06730 28-217): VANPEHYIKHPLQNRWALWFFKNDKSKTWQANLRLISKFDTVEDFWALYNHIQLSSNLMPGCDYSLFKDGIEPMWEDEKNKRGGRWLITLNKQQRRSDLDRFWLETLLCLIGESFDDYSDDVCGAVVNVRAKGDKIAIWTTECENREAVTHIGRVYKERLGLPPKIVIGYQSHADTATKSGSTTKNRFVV
Description: Human eIF4E ([…]) with a C-terminal His-tag was expressed in E. coli in inclusion bodies. The protein was solubilized with 8 M urea and purified under denaturing conditions using nickel-charged HisTrap HP columns (GE Healthcare). The purified protein was then refolded by diluting in 20 mM Hepes pH 7.0, 0.5 M NaCl, 1 mM DTT, […], 0.5 M arginine plus 6 M urea, and then dialyzing overnight into the same buffer without the urea. The protein was further dialyzed into 20 mM Hepes, pH 6.5, 50 mM NaCl, 1 mM EDTA, 1 mM DTT, and concentrated using Hitrap SP sepharose FF columns (GE Healthcare). The concentrated protein was dialyzed into 20 mM Hepes, pH 7.0, 0.5M NaCl, 5 mM DTT and […], and stored at -80° C. until use. Test compounds (3.43 mM stock in DMSO) were diluted 2-fold in series in DMSO (10 concentration points). Compound solutions (1.2 μL/well) were added into black 384-well polypropylene microplates (Matrix, Thermal Scientific). […] The samples were incubated at room temperature (20-23° C.) for 4 hours. Biotin labeled 4G2 peptide ([…])-NH2, 1.75 μM stock in DMSO) was diluted to 0.13 μM in Assay Buffer (without DTT) and 5 μL/well was added. The samples were incubated at room temperature for 20 min. Five microliters per well of 15 nM Eu-streptavidin (Eu-SA, Perkin Elmer) and 96 nM Allophycocyanin (APC)-anti His antibody (Columbia Biosciences) in Assay Buffer (without DTT) were then added and the samples were incubated at room temperature for 20 min. Assay signals were monitored by reading excitation at 340 nm and emission fluorescence at 615 nm and 665 nm on an Envision reader (Perkin Elmer). Normalized TR-FRET (time-resolved fluorescence resonance energy transfer) assay signal (Rn) was calculated by the formula: […] C=(Ac-Ba)/(Dc-Bd) • Where Ac is the fluorescence intensity of 1.5 nM Eu-SA in the assay buffer at 665 nm. IC50 values were calculated using xLFit program (IDBS).

Row | IC50 [2] [nM] | SMILES | IC50 [1] [nM]
1 | 500 to 1000 | CC(C)Cc1sc(Nc2ncc(-c3cccs3)cc2C(=O)O)nc1C1CCCCC1 [Compound I-3] | ≤ 1000
2 | 500 to 1000 | CC(C)Cc1sc(Nc2ncc(-c3cccs3)cc2C(=O)O)nc1C1=CCCC1 [Compound I-8] | ≤ 1000
3 | ≤ 500 | CC(C)Cc1sc(Nc2ncc(-c3cccs3)cc2C(=O)O)nc1C1(C)CCCCC1 [Compound I-27] | ≤ 1000
4 | 500 to 1000 | CC(C)Cc1sc(Nc2ncc(-c3cccs3)cc2C(=O)O)nc1C1CCC(F)(F)CC1 [Compound I-29] | ≤ 1000

More lines, now with the values behind:

Row | SMILES | IC50 [2] [nM] | IC50 [1] [nM]
5 | CC(C)Cc1sc(Nc2ncc(-c3cccs3)cc2C(=O)O)nc1C1=CCOCC1 [Compound I-1] | 500 to 1000 | ≤ 1000
6 | CC(C)Cc1sc(Nc2ncc(-c3cccs3)cc2C(=O)O)nc1C1=CCCCC1 [Compound I-2] |  | ≤ 1000
7 | CC(C)Cc1sc(Nc2ncc(-c3cccs3)cc2C(=O)O)nc1C(C)(C)C [Compound I-11] | 500 to 1000 | ≤ 1000
